Laboratory results as given in patent publication US20250161338A1, “Compounds for Anti-aging Intervention” (AGENCY FOR SCIENCE, TECHNOLOGY AND RESEARCH, priority 2022, published 2025).
Counter-ions that a name gives are not always drawn. Residues, ends and D or L forms follow the SMILES beside them.

Assays:
[1] = tested on: prototrophic yeast strain (CEN.PK113-7D); test: Yeast outgrowth in YPD liquid medium (CLS of aged cells); format: cell-based, Saccharomyces cerevisiae; details: age point day 14
How it was run: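 Cultures aged at 30 °C in SD medium with double-diluted rapamycin (0–10 nM) or sugars/polyols (0–8 mM). On day 14, 3 µL of culture was transferred into 200 µL YPD and outgrowth read as OD600. Survival expressed relative to day 1 outgrowth (100%).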

[2] = tested on: prototrophic yeast strain (CEN.PK113-7D); test: Propidium iodide fluorescence-based CLS method in yeast (incl. high-throughput screening); format: cell-based, Saccharomyces cerevisiae; details: for Yeast CLS increase: Yes/No call of the screen;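 as to PI intensity: untreated reference is eight DMSO and water control wells per plate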
How it was run: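 CEN.PK113-7D aged in SD medium at 30 °C with compounds (rapamycin 0–10 nM; sugars 0–8 mM; screen at single concentrations). At each age point cells were stained with 5 μg/mL PI for 15 min; fluorescence was normalized to OD600, background-subtracted, and survival scaled against boiled-cell control.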

[3] = concentration tested 100 μM, OD600 nm after 24 h in YPD at 30° C.
[4] = concentration tested 100 μM, solvent DMSO or water, chronological age point Day 7 (72 h growth = Day 1), lower = more survival
[5] = concentration tested 30 μg/mL, OD600 nm after 24 h in YPD
[6] = concentration tested 30 μg/mL, solvent water, age point Day 7

Compound | Outgrowth [1, 3] | Yeast CLS increase ([2]; concentration tested 100 μM) | PI intensity [2, 4] | Outgrowth [1, 5] | Yeast CLS increase ([2]; concentration tested 30 μg/mL) | PI intensity [2, 6]
COc1cc2oc(-c3ccc(O)cc3)cc(=O)c2c(O)c1OC [Cirsimaritin] | 0.1 | No | 85,017.1 |  |  | 
Hyaluronidase |  |  |  | 0.1 | No | 78,406.7
CC(C)CCC[C@@H](C)[C@H]1CC[C@H]2[C@@H]3CC[C@H]4CC(=O)CC[C@]4(C)[C@H]3CC[C@]12C [5α-Cholestan-3-one] | 0.1 | No | 62,022.6 |  |  | 
COC(=O)CC(C)=O [Methyl acetylacetate] | 0.1 | No | 64,956.3 |  |  | 
CCCC(=O)C(=O)O [2-Oxovaleric acid] | 0.1 | No | 61,246.4 |  |  | 
CC(=O)c1ccc(O)c(C(=O)O)c1 [5-Acetylsalicylic acid] | 0.1 | No | 63,538.6 |  |  | 
C[C@@H]1O[C@@H](O[C@H]2[C@H](O[C@H]3CC[C@@]4(C)[C@@H](CC[C@]5(C)[C@@H]4CC=C4[C@@H]6CC(C)(C)CC[C@]6(C(=O)O[C@@H]6O[C@H](CO[C@@H]7O[C@H](CO)[C@@H](O[C@@H]8O[C@@H](C)[C@H](O)[C@@H](O)[C@H]8O)[C@H](O)[C@H]7O)[C@@H](O)[C@H](O)[C@H]6O)CC[C@]45C)[C@]3(C)CO)OC[C@H](O)[C@@H]2O)[C@H](O)[C@H](O)[C@H]1O [Hederacoside C] | 0.1 | No | 73,515.9 |  |  | 
CC[C@H](C)[C@@H]1NC(=O)[C@@H]2CCCN2C(=O)[C@@H]2CCCN2C(=O)[C@@H]2CCCN2C(=O)[C@H](CC(C)C)NC(=O)CNC(=O)CNC(=O)[C@H](Cc2ccccc2)NC1=O [Heterophyllin B] (cyclo(FGGLPPPI)) | 0.2 | No | 61,587.8 |  |  | 
CC(=O)OCC(=O)[C@@]1(OC(C)=O)[C@@H](C)C[C@H]2[C@@H]3C[C@H](F)C4=CC(=O)C=C[C@]4(C)[C@@]3(F)[C@@H](O)C[C@@]21C [Diflorasone, reference compound] | 0.1 | No | 71,051.3 |  |  | 
CC1(C)[C@@H](O[C@H]2O[C@H](C(=O)[O-])[C@@H](O)[C@H](O)[C@H]2O[C@@H]2O[C@H](C(=O)[O-])[C@@H](O)[C@H](O)[C@H]2O)CC[C@]2(C)[C@H]3C(=O)C=C4[C@@H]5C[C@@](C)(C(=O)O)CC[C@]5(C)CC[C@@]4(C)[C@]3(C)CC[C@@H]12.[K+].[K+] [Dipotassium glycyrrhizinate] | 0.1 | No | 68,519.8 |  |  | 
C[Se]CC[C@H](N)C(=O)O [L-SelenoMethionine] | 1.2 | Yes | 31,240.0 |  |  | 
OC[C@H]1O[C@@H](O[C@H]2[C@H](O)[C@@H](O)[C@H](O)O[C@@H]2CO)[C@H](O)[C@@H](O)[C@@H]1O [D-(+)-Cellobiose] | 0.1 | No | 69,857.4 |  |  | 
COc1ccc(C=CC(=O)O)cc1 [4-Methoxycinnamic acid] | 0.1 | No | 89,890.5 |  |  | 
CCCCC[C@H](CC(=O)NO)C(=O)N[C@H](C(=O)N1CCC[C@H]1CO)C(C)C [Actinonin] | 0.1 | No | 75,254.2 |  |  | 
CCOC(=O)c1ccc(O)cc1 [Ethylparaben] | 0.1 | No | 52,097.7 |  |  | 
CC1(C)C[C@@H]1C(=O)N/C(=C\CCCCSC[C@H](N)C(=O)O)C(=O)O [Cilastatin, reference compound] | 0.1 | No | 55,728.9 |  |  | 
O=c1c(O[C@@H]2O[C@H](CO)[C@@H](O)[C@H](O)[C@H]2O[C@@H]2O[C@H](CO)[C@@H](O)[C@H](O)[C@H]2O)c(-c2ccc(O)c(O)c2)oc2cc(O)cc(O)c12 [Baimaside] | 0.2 | No | 61,895.7 |  |  | 
Nc1ncnc2c1ncn2[C@H]1C[C@H](O)[C@@H](CO)O1 [2′-Deoxyadenosine] | 0.1 | No | 70,796.4 |  |  | 
COCCCOc1cc(C[C@@H](C[C@H](N)[C@@H](O)C[C@H](C(=O)NCC(C)(C)C(N)=O)C(C)C)C(C)C)ccc1OC.COCCCOc1cc(C[C@@H](C[C@H](N)[C@@H](O)C[C@H](C(=O)NCC(C)(C)C(N)=O)C(C)C)C(C)C)ccc1OC.O=C(O)/C=C/C(=O)O [Aliskiren (hemiumarate), reference compound] | 0.1 | No | 73,607.3 |  |  | 
COc1cc(CC(=O)O)ccc1O [Homovanillic acid] | 0.1 | No | 65,033.1 |  |  | 
O=C1c2c(O)cccc2[C@@H]([C@@H]2O[C@H](CO)[C@@H](O)[C@H](O)[C@H]2O)c2cc(CO)cc(O)c21 [Aloin B] | 0.1 | No | 89,712.0 |  |  | 
C/C=C1\C(=O)C[C@H]2[C@@H]3CCC4=CC(=O)CC[C@]4(C)[C@H]3CC[C@]12C [Guggulsterone] | 0.1 | No | 63,881.9 |  |  | 

Compound | Outgrowth [1, 3] | Yeast CLS increase ([2]; concentration tested 100 μM) | PI intensity [2, 4] | Outgrowth [1, 5] | Yeast CLS increase ([2]; concentration tested 30 μg/mL) | PI intensity [2, 6]
OC[C@H]1O[C@@H](Oc2cc3c(O)cc(O)cc3[o+]c2-c2ccc(O)c(O)c2)[C@H](O)[C@@H](O)[C@H]1O.[Cl-] [Cyanidin-3-O-galactoside (chloride)] | 0.1 | No | 63,761.1 |  |  | 
CC1=C(/C=C/C(C)=C/C=C/C(C)=C/C(=O)O)C(C)(C)CCC1 [Retinoic acid, reference compound] | 0.1 |  | 85,242.6 |  |  | 
CC(C)=CCC[C@@H](C)CCO [(R)-Citronellol] | 0.1 | No | 75,290.6 |  |  | 
CCc1ccc(O)cc1 [4-Ethylphenol] | 0.1 | No | 58,041.7 |  |  | 
Cisatracurium (besylate) [reference compound] | 0.1 | No | 75,862.3 |  |  | 
CCCCCCCCCCCCCCCC(=O)NCCO [Impulsin] | 0.1 | No | 71,903.7 |  |  | 
O=c1ccc2cc(O[C@@H]3O[C@H](CO)[C@@H](O)[C@H](O)[C@H]3O)c(O)cc2o1 [Esculin] | 0.1 | No | 72,890.7 |  |  | 
Polidocanol [reference compound] |  |  |  | 0.1 | No | 74,745.5
COc1cc(C(=O)O)ccc1O [Vanillic acid] | 0.1 | No | 64,546.4 |  |  | 
CC1=C(C(=O)O)N2C(=O)[C@@H](NC(=O)[C@H](N)c3ccc(O)cc3)[C@H]2SC1 [Cefadroxil, reference compound] | 0.1 | No | 70,326.1 |  |  | 
Oc1cc(O)c2c(c1)O[C@H](c1cc(O)c(O)c(O)c1)[C@H](O)C2 [(−)-Epigallocatechin] | 0.1 | No | 62,025.6 |  |  | 
CCC[C@@H]1C[C@@H](C(=O)N[C@@H]([C@H]2O[C@H](SC)[C@H](O)[C@@H](O)[C@H]2O)[C@@H](C)O)N(C)C1 [Lincomycin (hydrochloride monohydrate), reference compound] | 0.1 | No | 67,751.3 |  |  | 
O=C1NC(c2ccccc2)(c2ccccc2)C(=O)N1COP(=O)(O)O [Fosphenytoin (disodium), reference compound] | 0.1 | No | 61,860.0 |  |  | 
C[C@@H](O)[C@H]1C(=O)N2C(C(=O)O)=C(S[C@@H]3CN[C@H](CNS(N)(=O)=O)C3)[C@H](C)[C@H]12 [Doripenem (monohydrate), reference compound] | 0.1 | No | 69,608.7 |  |  | 
Heparin (Lithium salt) [reference compound] |  |  |  | 0.1 | No | 77,829.1
COc1ccc(C=CC(=O)O)cc1OC [3,4-Dimethoxycinnamic acid] | 0.1 | No | 70,914.2 |  |  | 
CC(O)Cn1cnc2c1c(=O)n(C)c(=O)n2C (centres unmarked) [Proxyphylline, reference compound] | 0.1 | No | 72,232.1 |  |  | 
C[Se]CC[C@H](N)C(=O)O [Selenomethionine] | 1.2 | Yes | 29,837.8 |  |  | 
O=C(O)c1ccc2c(c1)C(=O)c1ccccc1C2=O [Anthraquinone-2-carboxylic acid] | 0.1 | No | 96,099.2 |  |  | 
Cc1ccc(C(C)C)c(O)c1 [Thymol] | 0.1 | No | 61,503.8 |  |  | 
O=C(O)Cc1ccccc1Nc1c(Cl)cccc1Cl [Diclofenac (Sodium), reference compound] | 0.2 | No | 79,704.3 |  |  | 
